Test results as given in patent US4965365A, “Imidazole derivatives and a process for the preparation thereof” (Laboratorios Vinas, S.A., priority 1988, dated 1990).

Legend:
ethanol induced ulcers = conditions: equimolecular doses
Procedure: (B) Necrotic agent model.
The activity of this compound vs cimetidine at equimolecular doses and a control group administered a vehicle was tested using the necrotic agent model, in this case ethanol, described by A. Robert et al. (Gastroenterology, 77: 433, 1979).

[1] = system: histamine induced gastric acid secretion; conditions: 15 mg/kg, i.p., rat, intragastric pH
Procedure: (A) histamine induced gastric acid secretion model "in vivo" in the rat.
This activity was measured in Wistar rats of 240±20 g body weight. An endovenous perfusion of a histamine solution stimulated the gastric acid secretion, causing a drop in the intragastric pH. Thereafter, this compound was administered i.p. and the increase in gastric pH caused was evaluated.

| Compound | % inhibition of ulcers vs the control (ethanol induced ulcers; ethanol model) [%] | mm damaged (lesion index, mm of ulcer) (ethanol induced ulcers; mean ± standard error of the mean, control 91.4 ± 8.1, a: t test p< 0.05 vs control) [mm] | pH Recovery [1] [%] |
| --- | --- | --- | --- |
| CNC(=NC#N)NCCSCc1nc[nH]c1C [Cimetidine, cimetidine] | 30.3 | 63.7 ± 7.7 | – |
| CN=C(NC#N)NCCSCc1nc[nH]c1C.[Cl][Zn][Cl] [Zn(cimetidine)Cl2] | – | – | 65.5 |
